Reference: patent US11077090B2, “Compounds and compositions and uses thereof” (Sunovion Pharmaceuticals Inc., priority 2016, dated 2021)

Tested on: compound-treated mice
Test: Neuropharmacological assay (SmartCube): behavioral activity signature and minimal effective dose
Type: in vivo
Conditions: Mus musculus, ip, MED = dose having 50% or more total activity, read-out: Potency: minimal effective dose (MED), binned
How it was run: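 Video-recorded behavior is compared algorithmically against a reference-compound database, yielding class probabilities (best dose reported). Compounds given i.p. in NMP/PEG/propylene glycol 15 min pre-test at 3 doses; potency as MED, the dose (mpk, range usually 0.3–30) reaching ≥50% total activity.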

Row | SMILES | minimal effective dose [mg/kg]
1 | C[C@@H]1OCc2ccc(Cl)cc2[C@@H]1N.Cl [Example 194] | 3 to 10
2 | C[C@@H]1OCc2ccc3c(c2[C@@H]1N)CCCC3.Cl [Example 196] | 10 to 30
3 | C[C@H]1OCc2ccc3c(c2[C@@H]1N)CCCC3.Cl [Example 197] | 3 to 10
4 | Cc1ccc(Cl)c2c1[C@H](N)[C@@H](C)OC2.Cl [Example 200] | 3 to 10
5 | CC[C@@H]1OCc2ccc(F)cc2[C@@H]1N.Cl [Example 201] | 3 to 10
6 | CC[C@H]1OCc2ccc(F)cc2[C@@H]1N.Cl [Example 202] | < 3
7 | C[C@H]1OC[C@@H](N)c2cc(Cl)ccc21.Cl [Example 203] | 3 to 10
8 | C[C@@H]1OC[C@@H](N)c2cc(Cl)ccc21.Cl [Example 204] | 3 to 10
9 | C[C@H]1OC[C@@H](N)c2cc(F)ccc21.Cl [Example 205] | 3 to 10
10 | C[C@@H]1OC[C@@H](N)c2cc(F)ccc21.Cl [Example 206] | 3 to 10
11 | CC[C@H]1OCc2cccc(C)c2[C@@H]1N.Cl [Example 207] | 3 to 10
12 | CC[C@@H]1OCc2cccc(C)c2[C@@H]1N.Cl [Example 208] | 3 to 10
13 | Cc1ccc2c(c1)[C@H](N)[C@@H](C(C)C)OC2 [Example 210] | 3 to 10

Same assay, conditions: i.p. 15 min before test, most efficacious dose(s)

Row | SMILES | AD: ADHD (probability of activity signature) | AG: analgesic (probability of activity signature) | AX: anxiolytic (probability of activity signature) | CE: cognitive enhancer (probability of activity signature) | DP: anti-depressant (probability of activity signature) | MS: mood stabilizer (probability of activity signature) | PS: anti-psychotic (probability of activity signature) | SD: sedative hypnotic (probability of activity signature) | UN: uncharacterized CNS activity (probability of activity signature)
14 | C[C@@H]1OCc2ccc(Cl)cc2[C@@H]1N.Cl [Example 194] | + (LOQ ≤ + <5%) | ++ (5% ≤ ++ <25%) | ++ (5% ≤ ++ <25%) | ++ (5% ≤ ++ <25%) | ++ (5% ≤ ++ <25%) | + (LOQ ≤ + <5%) | ++ (5% ≤ ++ <25%) | + (LOQ ≤ + <5%) | ++++ (50% ≤ ++++)
15 | C[C@@H]1OCc2ccc3c(c2[C@@H]1N)CCCC3.Cl [Example 196] | + (LOQ ≤ + <5%) | + (LOQ ≤ + <5%) | ++ (5% ≤ ++ <25%) | ++ (5% ≤ ++ <25%) | + (LOQ ≤ + <5%) | + (LOQ ≤ + <5%) | ++ (5% ≤ ++ <25%) | + (LOQ ≤ + <5%) | +++ (25% ≤ +++ <50%)
16 | C[C@H]1OCc2ccc3c(c2[C@@H]1N)CCCC3.Cl [Example 197] | + (LOQ ≤ + <5%) | + (LOQ ≤ + <5%) | ++ (5% ≤ ++ <25%) | + (LOQ ≤ + <5%) | + (LOQ ≤ + <5%) | + (LOQ ≤ + <5%) | + (LOQ ≤ + <5%) | + (LOQ ≤ + <5%) | ++++ (50% ≤ ++++)
17 | Cc1ccc(Cl)c2c1[C@H](N)[C@@H](C)OC2.Cl [Example 200] | + (LOQ ≤ + <5%) | ++ (5% ≤ ++ <25%) | +++ (25% ≤ +++ <50%) | ++ (5% ≤ ++ <25%) | ++ (5% ≤ ++ <25%) | + (LOQ ≤ + <5%) | ++ (5% ≤ ++ <25%) | + (LOQ ≤ + <5%) | ++++ (50% ≤ ++++)
18 | CC[C@@H]1OCc2ccc(F)cc2[C@@H]1N.Cl [Example 201] | + (LOQ ≤ + <5%) | + (LOQ ≤ + <5%) | ++ (5% ≤ ++ <25%) | ++ (5% ≤ ++ <25%) | + (LOQ ≤ + <5%) | + (LOQ ≤ + <5%) | ++ (5% ≤ ++ <25%) | + (LOQ ≤ + <5%) | ++++ (50% ≤ ++++)
19 | CC[C@H]1OCc2ccc(F)cc2[C@@H]1N.Cl [Example 202] | + (LOQ ≤ + <5%) | ++ (5% ≤ ++ <25%) | +++ (25% ≤ +++ <50%) | ++ (5% ≤ ++ <25%) | ++ (5% ≤ ++ <25%) | + (LOQ ≤ + <5%) | ++ (5% ≤ ++ <25%) | + (LOQ ≤ + <5%) | ++++ (50% ≤ ++++)
20 | C[C@H]1OC[C@@H](N)c2cc(Cl)ccc21.Cl [Example 203] | + (LOQ ≤ + <5%) | ++ (5% ≤ ++ <25%) | ++ (5% ≤ ++ <25%) | ++ (5% ≤ ++ <25%) | ++ (5% ≤ ++ <25%) | + (LOQ ≤ + <5%) | +++ (25% ≤ +++ <50%) | ++ (5% ≤ ++ <25%) | ++++ (50% ≤ ++++)
21 | C[C@@H]1OC[C@@H](N)c2cc(Cl)ccc21.Cl [Example 204] | + (LOQ ≤ + <5%) | + (LOQ ≤ + <5%) | ++ (5% ≤ ++ <25%) | ++ (5% ≤ ++ <25%) | + (LOQ ≤ + <5%) | + (LOQ ≤ + <5%) | ++ (5% ≤ ++ <25%) | ++ (5% ≤ ++ <25%) | ++++ (50% ≤ ++++)
22 | C[C@H]1OC[C@@H](N)c2cc(F)ccc21.Cl [Example 205] | + (LOQ ≤ + <5%) | + (LOQ ≤ + <5%) | +++ (25% ≤ +++ <50%) | ++ (5% ≤ ++ <25%) | ++ (5% ≤ ++ <25%) | + (LOQ ≤ + <5%) | ++ (5% ≤ ++ <25%) | ++ (5% ≤ ++ <25%) | +++ (25% ≤ +++ <50%)
23 | C[C@@H]1OC[C@@H](N)c2cc(F)ccc21.Cl [Example 206] | + (LOQ ≤ + <5%) | ++ (5% ≤ ++ <25%) | ++++ (50% ≤ ++++) | ++ (5% ≤ ++ <25%) | ++ (5% ≤ ++ <25%) | + (LOQ ≤ + <5%) | ++ (5% ≤ ++ <25%) | + (LOQ ≤ + <5%) | +++ (25% ≤ +++ <50%)
24 | CC[C@H]1OCc2cccc(C)c2[C@@H]1N.Cl [Example 207] | + (LOQ ≤ + <5%) | ++ (5% ≤ ++ <25%) | ++ (5% ≤ ++ <25%) | ++ (5% ≤ ++ <25%) | ++ (5% ≤ ++ <25%) | + (LOQ ≤ + <5%) | ++ (5% ≤ ++ <25%) | + (LOQ ≤ + <5%) | ++++ (50% ≤ ++++)
25 | CC[C@@H]1OCc2cccc(C)c2[C@@H]1N.Cl [Example 208] | + (LOQ ≤ + <5%) | + (LOQ ≤ + <5%) | +++ (25% ≤ +++ <50%) | ++ (5% ≤ ++ <25%) | ++ (5% ≤ ++ <25%) | ++ (5% ≤ ++ <25%) | ++ (5% ≤ ++ <25%) | + (LOQ ≤ + <5%) | +++ (25% ≤ +++ <50%)
26 | Cc1ccc2c(c1)[C@H](N)[C@@H](C(C)C)OC2 [Example 210] | + (LOQ ≤ + <5%) | ++ (5% ≤ ++ <25%) | ++ (5% ≤ ++ <25%) | ++ (5% ≤ ++ <25%) | + (LOQ ≤ + <5%) | + (LOQ ≤ + <5%) | + (LOQ ≤ + <5%) | + (LOQ ≤ + <5%) | ++++ (50% ≤ ++++)
